Here are results for six compounds from ChEMBL document CHEMBL3351529, “Triazolopyridyl ketones as a novel class of antileishmanial agents. DNA binding and BSA interaction” (Bioorg Med Chem, 2014).

SMILES strings stand for the structures. Active and inactive are the calls of the source. The rule behind the calls is not given here.

Data set [1] has as its system Leishmania infantum. Put plainly: Antileishmanial activity against promastigote form of Leishmania infantum MCAN/ES/96/BCN150 after 48 hrs by resazurin fluorescence assay. The class given is functional, organism-based. (Resazurin is reduced to fluorescent resorufin, in cell work by metabolically active cells.)
Data set [2] concerns Leishmania amazonensis. Briefly: Antileishmanial activity against promastigote form of Leishmania amazonensis MHOM/Br/79/Maria after 48 hrs by resazurin fluorescence assay. Type of data set: functional, organism-based.
The subject of data set [3] is Leishmania braziliensis. Briefly: Antileishmanial activity against promastigote form of Leishmania braziliensis 2903 after 48 hrs by resazurin fluorescence assay. Type of data set: functional, organism-based. Particulars: Leishmania braziliensis, 2903, 48 h.
Data set [4] has as its system Leishmania guyanensis. Put plainly: Antileishmanial activity against promastigote form of Leishmania guyanensis 141/93 after 48 hrs by resazurin fluorescence assay. The class given is functional, organism-based. Particulars: 141/93, 48 h.
Data set [5] in a line: Cytotoxicity against mouse J774 cells assessed as reduction in cell viability after 24 hrs by resazurin fluorescence assay. Type of data set: cell-based.
The nature of data set [6]: Selectivity index, ratio of CC50 for mouse J774 cells to IC50 for promastigote form of Leishmania infantum MCAN/ES/96/BCN150. Type of data set: functional.
The nature of data set [7]: Selectivity index, ratio of CC50 for mouse J774 cells to IC50 for promastigote form of Leishmania amazonensis MHOM/Br/79/Maria. Type of data set: functional.
Data set [8] in a line: Selectivity index, ratio of CC50 for mouse J774 cells to IC50 for promastigote form of Leishmania braziliensis 2903. Type of data set: functional.
Data set [9] in a line: Selectivity index, ratio of CC50 for mouse J774 cells to IC50 for promastigote form of Leishmania guyanensis 141/93. The class given is functional.
For data set [10], the system named is Leishmania infantum. Put plainly: Antileishmanial activity against amastigote form of Leishmania infantum MCAN/ES/96/BCN150 infected in mouse J774 cells assessed as reduction in intracellular amastigotes compound treated for 48 hrs followed by 3 days incubation for transformation by resazurin fluorescence assay. Type of data set: functional, organism-based. Particulars: MCAN/ES/96/BCN150, J774.

Data set [11] is described as follows: Selectivity index, ratio of CC50 for mouse J774 cells to IC50 for amastigote form of Leishmania infantum MCAN/ES/96/BCN150 infected in mouse J774 cells. Type of data set: functional.
Data set [12] has as its system Leishmania amazonensis. Put plainly: Antileishmanial activity against amastigote form of Leishmania amazonensis MHOM/Br/79/Maria infected in mouse J774 cells assessed as reduction in intracellular amastigotes compound treated for 48 hrs followed by 3 days incubation for transformation by resazurin fluorescence assay. The class given is functional, organism-based.

Data set [13] deals with Leishmania infantum. Briefly: Antileishmancidal activity against amastigote form of Leishmania infantum MCAN/ES/96/BCN150 infected in BALB/c mouse assessed as reduction of parasite burden in spleen at 5 mg/kg, ip qd for 5 consecutive days starting 21 days post infection measured after 7 days relative to untreated control. The class given is functional. Also on record: scale not given: the % may be the effect or the level left. Particulars: route intraperitoneal.

The subject of data set [14] is Leishmania infantum. Briefly: Antileishmancidal activity against amastigote form of Leishmania infantum MCAN/ES/96/BCN150 infected in BALB/c mouse assessed as reduction of parasite burden in liver at 5 mg/kg, ip qd for 5 consecutive days starting 21 days post infection measured after 7 days relative to untreated control. The class given is functional.
In data set [15] the test system is Calf thymus DNA. Put plainly: Binding affinity to calf thymus DNA assessed as hypochromic effect at DNA-compound ratio of 3 by UV-visible titration method. The class given is nucleic-acid assay. Particulars: Bos taurus.
Data set [16] deals with Calf thymus DNA. Briefly: Binding affinity to calf thymus DNA by UV-visible titration method. Type of data set: nucleic-acid assay. Particulars: Bos taurus.
The species named for data set [17] is Bos taurus. Briefly: Effect on calf thymus DNA viscosity at 1 to 10 uM.
Data set [18] deals with T1, Albumin (Bos taurus, UniProt P02769). Put plainly: Binding affinity to bovine serum albumin after 10 mins by fluorimetric titration method. Particulars: cattle, isolated protein. The class given is ADME.
The target in data set [19] is T1, Albumin. Briefly: Binding affinity to bovine serum albumin assessed as quenching constant after 10 mins by Stern-Volmer plot method. Type of data set: ADME. Particulars: cattle, isolated protein.
The target in data set [20] is T1, Albumin. Put plainly: Competitive binding affinity to bovine serum albumin site 1 assessed as quenching constant after 10 mins by fluorimetric titration method in presence of warfarin. The class given is ADME. Particulars: cattle, isolated protein.
For data set [21], the target named is T1, Albumin. Put plainly: Competitive binding affinity to bovine serum albumin site 2 assessed as quenching constant after 10 mins by fluorimetric titration method in presence of ibuprofen. The class given is ADME. Particulars: cattle, isolated protein.
Data set [22] can be described thus: Selectivity index, ratio of CC50 for mouse J774 cells to IC50 for amastigote form of Leishmania amazonensis MHOM/Br/79/Maria infected in mouse J774 cells. Type of data set: functional.
Data set [23] concerns Mus musculus. Put plainly: Toxicity in BALB/c mouse assessed as gross weight loss at 5 mg/kg, ip qd for 5 consecutive days. The class given is organism-based. Further details: dose 5 mg/kg, route intraperitoneal. Particulars: in vivo.
In data set [24] the test system is Mus musculus. Put plainly: Toxicity in BALB/c mouse assessed as hair loss at 5 mg/kg, ip qd for 5 consecutive days. Type of data set: organism-based. Also on record: dose 5 mg/kg, route intraperitoneal. Particulars: in vivo.
Data set [25] relates to Calf thymus DNA. Put plainly: Binding affinity to calf thymus DNA at 10 uM by UV-visible titration method. The class given is nucleic-acid assay. Particulars: Bos taurus.
Where [26] appears, read: Leishmania infantum, MCAN/ES/96/BCN150, 48 h, read-out: IC50.
[27] abbreviates: Leishmania amazonensis, MHOM/Br/79/Maria, 48 h, read-out: IC50.

T1 sequence (P02769 whole entry): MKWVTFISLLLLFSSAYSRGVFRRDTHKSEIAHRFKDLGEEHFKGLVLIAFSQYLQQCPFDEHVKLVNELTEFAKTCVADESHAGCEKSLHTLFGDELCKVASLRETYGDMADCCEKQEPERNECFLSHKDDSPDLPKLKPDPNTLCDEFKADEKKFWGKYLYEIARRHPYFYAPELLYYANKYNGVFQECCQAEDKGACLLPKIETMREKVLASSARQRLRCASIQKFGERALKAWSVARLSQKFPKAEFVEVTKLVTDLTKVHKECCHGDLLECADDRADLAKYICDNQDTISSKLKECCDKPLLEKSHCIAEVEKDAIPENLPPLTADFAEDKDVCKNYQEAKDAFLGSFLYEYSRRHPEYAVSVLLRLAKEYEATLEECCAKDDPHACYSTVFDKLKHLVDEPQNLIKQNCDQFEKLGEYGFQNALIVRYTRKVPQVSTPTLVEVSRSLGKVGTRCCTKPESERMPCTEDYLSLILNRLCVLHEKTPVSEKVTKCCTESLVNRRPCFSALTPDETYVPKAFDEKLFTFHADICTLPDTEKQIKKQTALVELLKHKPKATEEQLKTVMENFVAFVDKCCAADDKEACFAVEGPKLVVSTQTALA

Broadly, the IC50 is the concentration that inhibits the measured activity by half. By CC50 is commonly meant the concentration at which the toxic effect on the cells reaches its halfway point. For the compound `O=C(c1ccccn1)c1cccc2c(-c3ccccc3)nnn12`, the IC50 in data set [1] (setting [26]) was determined as 173 µM; in data set [2] (setting [27]), 106 µM; in data set [3] it was 169 µM; in data set [4] it was 126 µM. Further, in data set [5], the half-maximal cytotoxic concentration (CC50) at 24 h was at least 300 µM. Also, the “Ratio CC50/IC50” value is on record as above 1.9 in data set [6], above 2.8 in data set [7], above 1.8 in data set [8] and above 2.4 in data set [9].

With `O=C(c1cccc2c(-c3ccccc3)nnn12)c1cccc2c(-c3ccccc3)nnn12`, the IC50 entry is “Not Active” in [1], “Not Active” in data set [2], 56.8 µM in data set [3] and 53.8 µM in data set [4]. For the same compound, the 50% cytotoxic concentration (CC50) at 24 h in data set [5] was at least 300 µM. For the same compound, the “Ratio CC50/IC50” value in [8] was above 2.5; in data set [9] it was above 4.5.

As to `O=C(c1cccc(C(=O)c2cccc(-c3nnn4ccccc34)n2)n1)c1cccc(-c2nnn3ccccc23)n1`, the half-maximal inhibitory concentration (IC50) in data set [1] (setting [26]) is 99.8 µM; in data set [2] (setting [27]), 53.7 µM; in [3] it was 59.4 µM; in [4], 28.7 µM; in [10], 38 µM; in data set [12] (j774), “Not Active”. Besides, in data set [5], the CC50 at 24 h is at least 300 µM. In addition, the “Ratio CC50/IC50” value in data set [6] is given as above 3; in data set [7], above 5.6; in data set [8], above 5.1; in data set [9], above 10.4; in data set [11], above 7.9. Besides, the figures for the Activity in data set [13] and in data set [15] were 78.2% and 60%, respectively. The outcome in data set [14] and in [17] was inactive. Besides, the Kb was found to be 3.26 ×10⁵ /M in data set [16], 1.9 ×10⁴ /M in data set [18], 8.2 ×10³ /M in data set [20] and 3.8 ×10³ /M in data set [21]. The Kq in data set [18] is given as 2.4 ×10¹³ /M/sec. Moreover, the KSV in [19] is recorded as 2.4 ×10⁵ /M.

With `CCCCCCCCCCCCCCCCOP(=O)([O-])OCC[N+](C)(C)C` [MILTEFOSINE], the half-inhibitory concentration (IC50) in [1] (setting [26]) came to 21.3 µM; in [2] (setting [27]) it was 28.3 µM; in [3], 27.1 µM; in data set [4], 53.6 µM. Also, the CC50 at 24 h in data set [5] is 164 µM. In addition, the “Ratio CC50/IC50” value in data set [6] worked out at 7.7; in data set [7], 5.8; in [8] it was 6; in data set [9], 3.1; in data set [11], 5.7; in data set [22], 6.5.

Regarding `O=C(c1cccc(-c2nnn3ccccc23)n1)c1cccc(-c2nnn3ccccc23)n1`, the concentration for half-maximal inhibition (IC50) in [1] (setting [26]) amounted to 47.3 µM; in data set [2] (setting [27]), 89.6 µM; in data set [3] it was 26.8 µM; in data set [4], 29.3 µM; in [10], 19.5 µM; in data set [12] (Leishmania amazonensis, MHOM/Br/79/Maria, J774, read-out: IC50) it was 115 µM. Moreover, in data set [5], the CC50 at 24 h is at least 300 µM. In addition, the “Ratio CC50/IC50” value is above 6.3 in data set [6]; above 3.3 in [7]; above 11.2 in [8]; above 10.2 in data set [9]; above 15.3 in data set [11]; above 2.6 in data set [22]. The Activity is 99.3% in data set [13]; 92.8% in [14] (route intraperitoneal); “Non-toxic” in data set [23]; “Non-toxic” in [24]; 60% in data set [15]. Also, the Kb in data set [16] stood at 1.14 ×10⁵ /M; in [18] it was 2.5 ×10⁴ /M; in data set [20], 9.3 ×10³ /M; in data set [21], 5.3 ×10³ /M. For the same compound, in data set [17], the result was inactive. In data set [18], the Kq is recorded as 2.6 ×10¹³ /M/sec. Also, the KSV in [19] worked out at 2.6 ×10⁵ /M.

As to `O=C(c1ccccn1)c1cccc(-c2nnn3ccccc23)n1`, the IC50 was determined as 231 µM in [1] (setting [26]), 108 µM in [2] (setting [27]), 190 µM in data set [3] and 109 µM in data set [4]. In addition, the CC50 at 24 h in [5] was at least 300 µM. In addition, the “Ratio CC50/IC50” value in data set [6] is listed as above 1.3; in [7], above 2.8; in data set [8], above 1.6; in [9], above 2.8. Also, the outcome in data set [25] was inactive.
